In one test the test system is Mysidopsis bahia. Briefly: 48 hour acute static renewal toxicity bioassay, Mysidopsis bahia (E.P.A./600/4-85/013). The format is in vivo. As to conditions: EPA Probit Analysis. Here is the method:
(§1) A nutrient mixture and coating were prepared as described in example 1. The toxicity of the product as expressed by reduced survival of organisms exposed to various dilutions of the product was determined through a 48 hour acute static renewal bioassay using Mysidopsis bahia and Cyprinodon variegatus. E.P.A./600/4-85/013 test protocol was followed. All organisms were maintained at room temperature with a light/dark cycle of 16/8. Dilution water was made from Tropic Marine Synthetic Sea Salt and was aerated for 24 hours before use in the test. The test was performed in 600 ml polypropylene diSPo beakers rinsed in the dilution water. Ten organisms of Mysidopsis bahia were placed in 200 ml of dilution water making a 5 cm depth. Ten organisms of Cyprinodon variegatus were placed in 500 ml of dilution water making a 9.5 cm depth.
(§2) Dissolved oxygen, pH, conductivity and salinity, alkalinity and hardness were measured before water renewal. CdCl supplied by the E.P.A. was used as the reference toxicant for both of the Mysidopsis and Cyprinodon organisms. Both the Mysidopsis and the Cyprinodons used in this test were obtained from Aquatox, Inc., and were approximately 27 days old at the time of testing. Both batches of organisms were acclimated to the proper salinity, by adding 300 ml of synthetic, fresh water, every hour until test initiation. […]

Another test concerns Cyprinodon variegatus. Briefly: 48 hour acute static renewal toxicity bioassay, Cyprinodon variegatus (E.P.A./600/4-85/013). The settings on record: EPA Probit Analysis. The format is in vivo. Here is the method:
as §1, §2

Consider `[Cl][Cd][Cl]` [CdCl], for which the figures for the “EC50 (reduced survival), reference toxicant” value with Mysidopsis bahia and in the test with Cyprinodon variegatus were 0.1185 µg/mL and 7.8237 µg/mL, respectively.

For the origin of these results see US5725885A, “Composition for enhanced bioremediation of oil” (BioNutraTech, priority 1995, dated 1998).
